Data taken from patent US11918610B2, “Methods for diagnosis and treatment of type 1 diabetes” (priority 2018, dated 2024).
No end group written: not given here.

Legend:
[1] = test system: MG1655 wild-type lysogenic strain biofilm; assay: Prophage induction with mitomycin C in E. coli biofilm: CFU numbers; type: cell-based, Escherichia coli; conditions: for CFU numbers: prophage induction with 1 μg/ml mitomycin C, 48h biofilm; for CFU: Table 17, prophage induction with mitomycin C, 48-h biofilm
Method: (§1) We used 48h old E. coli biofilms formed by amyloid-producing E. coli VT-55. Bacteriophages λ (from our collection) were employed. E. coli lysogenic strains were obtained by infection of host bacteria with phage. Prophages were induced with 1 μg/ml mitomycin C (Sigma). To confirm lytic development of bacteriophage we measured an increase in the number of plaque forming units (PFU) and the reduction of bacterial colony-forming units CFU numbers, throughout the 4 h to 10 h period (Table 2). The PFU number in E. coli biofilm was determined by the production of plaques on control E. coli culture.
(§2) Next, the E. coli phage/E. coli bacterial cell ratio, which represents the “lytic potential” (FIG. 6) (Waller et al., 2014), was analyzed. E. coli strain MG1655 was used as a host for prophage induction experiments (Jensen 1993). Bacteria were subcultured from freezer stocks onto Mueller-Hinton agar plates (Oxoid) and incubated at 37° C. overnight. All subsequent liquid subcultures were derived from colonies isolated from these plates and were grown in Mueller-Hinton broth (Oxoid). Bacteriophage λ from the inventors' collection was employed. Bacteriophage suspensions were routinely stored in TM buffer (10 mM Tris-HCl, 10 mM MgSO4, pH 7.2) at 4° C. E. coli lysogenic strains were obtained by infection of E. coli MG1655 with the phage and titration of cells on Mueller-Hinton agar plates as previously described (Maniatis et al. 1989). For prophage induction, Mitomycin C (Sigma-Aldrich) was prepared in 0.1 M phosphate buffer (pH 7.2), filtered through a 0.22-μm-pore filter (Millipore Corp., Bedford, Mass.), and stored at 4° C. (Georgopoulos et al., 2002). A modified protocol according to Reyrolle et al. designed for prophage induction on 96-well plates was used (Reyrolle et al., 1982; McDonald et al., 2010). Twenty microliters of an overnight E. coli MG1655 culture, with an absorbance at 600 nm of 0.2, was dispensed in each well of a 96-well flat-bottom polystyrene tissue culture microtiter plate (Sarstedt, Numbrecht, Germany), after which 180 μl of MHB (Oxoid) was added. The plates were incubated at 37° C. for 48 h. Induction of prophages in the E. coli biofilms was provoked by the addition of mitomycin C (Sigma) to a final concentration 1 μg/ml to each well. The plates were further incubated at 37° C. and samples were taken at 4, 6, 8, and 10 h following prophage induction.
(§3) The inventors evaluated how the die-off of E. coli populations due to prophage induction could lead to amyloid release. The inventors used 48-h old E. coli biofilms with confirmed curli expression. Curli formation on 48-h colonies was visible with the naked eye on petri dishes (data not shown). Prophages were induced with mitomycin C. Lytic bacteriophage development was confirmed as an increase in plaque forming units (PFU) and a reduction in colony-forming units (CFU).
(§4) CFU and PFU were determined as follows. To estimate CFU, biofilms were thoroughly scraped (Tetz et al., 2009). Well contents were aspirated, placed in 1 ml of isotonic phosphate buffer (0.15 M, pH 7.2), and the total CFU number was determined by serial dilution and plating on Mueller-Hinton agar. The number of phage virions produced after induction was estimated by phage titration (using strain MG1655 as a host) and phage plaque assay. Following induction, at the indicated times 200-μl samples of biofilms were collected. Then, 30 μl of chloroform was added to each sample, the mixture was vortexed and centrifuged at 3000×g for 5 min in a microcentrifuge (Eppendorf 5415D). A supernatant fraction of the bacterial lysate was further used. The phage titer (number of phages per ml) was determined using the double agar overlay assay method as described previously (Yuan et al., 2012). To this end, 2.5 μl of each titration point of phage lysate was spotted on Mueller-Hinton agar (Oxoid). […]

E. coli biofilm = assay: Release of bacterial amyloid from E. coli biofilm after prophage induction (Congo Red absorbance of supernatant); type: cell-based, Escherichia coli; conditions: for Congo Red absorbance of biofilm supernatant (release of bacterial amyloid): 10h following prophage induction
Method: Next, the effect of prophage induction on E. coli biofilm to amyloid release was evaluated. The amount of amyloid fibers in the biofilm supernatant was determined following prophage induction. Biofilm supernatant was collected and centrifuged at 5000 rpm (Eppendorf 5113) to sediment cells. Supernatant was filtered with […] and heated to eliminate contaminating proteins by incubating in a boiling water bath for 10 minutes, under the assumption that the aggregated β-sheet amyloid is heat resistant. To quantify the amount of aggregated amyloid, its binding to the amyloid diagnostic dye Congo Red (CR) was evaluated (Table 12). CR added to a final concentration of 10 μg/mL at pH 4.5 was tested using a BioRad UV/Vis spectrophotometer at 25° C. After 5 minutes of equilibration, the absorbance spectra were recorded from 400 to 600 nm. Each trace represents the average of 3 accumulated spectra.
Next, the inventors evaluated the effect of prophage induction on the amount of amyloid fibers released into the biofilm supernatant. Supernatant CR depletion assays were performed as follows. The amount of bacterial amyloid following prophage induction was measured in the supernatant of E. coli MG1655 biofilms. Biofilms were obtained as described above. Biofilm supernatant was taken at 4, 6, 8, and 10 h following prophage induction. To isolate aggregated amyloid fibers from the supernatant, the supernatant was centrifuged at 10,000×g, filtered through a 0.22 μm filter to separate bacterial cells, and treated with proteinase K to eliminate contaminating proteins. CR (Sigma-Aldrich) was added to a final concentration of 10 μg/ml from a filtered stock solution of 1 mg/ml (Reichhardt et al., 2015). After 5 min of equilibration, absorbance spectra were recorded from 400 to 600 nm (SmartSpec 3000, Bio-Rad). Each trace represents the average of 5 accumulated spectra. For all samples, spectra of corresponding nutrient MHB solutions with CR were used as blanks.
To quantify the amount of aggregated amyloid, its binding to the amyloid-diagnostic dye was evaluated by a Congo red (CR) assay (Reichhardt et al., 2015). A significant increase in CR absorbance was observed upon binding to supernatant 8 h following prophage induction as compared with control samples (FIG. 7). Like for other curli fibers, […] of the E. coli supernatant induced a spectral shift of the CR solution, with a maximum difference in absorbance between CR alone and CR bound to amyloid fibers at ˜541 nm (Chapman et al., 2002).

[2] = test system: MG1655 wild-type lysogenic strain (bacteriophage λ) biofilm; assay: Prophage induction with mitomycin C in E. coli biofilm: PFU numbers (phage plaque assay); type: cell-based, Escherichia coli; conditions: for PFU numbers: prophage induction with 1 μg/ml mitomycin C, 48h biofilm; for PFU: Table 17, prophage induction with mitomycin C, 48-h biofilm
Method: as §1, §2, §3, §4

[3] = test system: non-obese diabetic mice (NOD/ShiLtJ) colonized with E. coli VT-55; type: in vivo; conditions: NOD mice gavaged with E. coli VT-55; regimen of each agent as in Table 3; positive control (no therapy) 16, negative controls 24 and 26
Method: For this study non-obese diabetic mice (NOD/ShiLtJ) 8 weeks old (Jackson Laboratory, Bar Harbor, Me., USA) were housed and bred under specific pathogen-free conditions. Mice were maintained in a temperature controlled (22±2° C.) animal facility with a 12 hour light/dark cycle and were allowed free access to food and acidified drinking water. To increase the efficacy of E. coli transfer, all animals were exposed to antibiotic treatment before the transfer of E. coli. Starting at three weeks of age, recipient mice were treated with ampicillin (1 g/L) in the drinking water for the next 4 weeks. The bacterial strains used: E. coli strain VT-55—a wild-type, amyloid-producing strain. E. coli VT-55 bacteria were administered with oropharyngeal gavage to 8 week old female mice at 10^8 CFU, 2 times a week. Acceleration of T1D development was accessed by measuring blood glucose in a manner consistent with diabetes monitoring, using a FreeStyle Lite meter and test strips (Abbott). Blood glucose was evaluated weekly via a tail vein. T1D development was defined as occurring after two consecutive blood glucose measurements of at least 250 mg/dL.
TTR was expressed in E. coli VT-243. The TTR protein was precipitated from the supernatant of a 48 hour culture of E. coli VT-243 after centrifugation (12,000×g, 20 minutes 4° C.) of the lysed cells in the gradient 40-90% ammonium sulfate fraction (1.8-3.6 M). The precipitate that contained TTR was dialyzed overnight against 10 mM sodium phosphate buffer, pH 7.5, 100 mM KCl, 1 mM EDTA. The same volume of 200 mM sodium acetate buffer (pH 4.4, 100 mM KCl, 1 mM EDTA) was added to achieve a final pH of 4.5, and the mixture was then incubated for 18 hours at 37° C. Following centrifugation (45 min, 30,000×g, 4° C.), the supernatant was gel filtrated (Superdex 75) to elute phosphate buffer.
To develop nanoparticles with siRNA, we used cholesterol, distearoyl-sn-glycerol-3-phosphocholine (DSPC) and PEG2000-DMG (all Sigma). Nanoparticles were prepared by dissolving the 306013 lipidoid, cholesterol, DSPC, and PEG2000-DMG with final molar ratio of 50:38.5:10:1.5 in a 90% ethanol enriched with 10% 10 nM sodium citrate. Particles were formed following vortexing of equal volumes of siRNA solution with the lipid solution and subsequent dilution in PBS. Mice were orally gavaged with nanoparticles loaded with siRNA at a dose of 5 mg/kg.
The EcVac vaccine consisted of conjugates containing the 0-antigens of serotypes 06 of E. coli VT-55. […] The suspension for iv administration was made in TBS, (pH 7.4; 25 mmol Tris, 137 mmol NaCl, 2.8 mmol KCl).
Balb/c mice were immunized (10 μg) intraperitoneally and boosted (1 μg) subcutaneously with the E. coli amyloid isolated as previously described. Splenocytes were removed under sterile conditions, washed and hybridized to murine plasmacytoma parent cell line SP2/OAg14 using 40% polyethylene glycol and a spleen cell to plasmacytoma cell ratio of 5:1. Cells were plated in 96-well microtiter (Sarstedt) plates at 100,000 cells/per well with DMEM supplemented with 10% fetal bovine serum. Following 48h, cells were supplemented with hypoxanthine (100 PM) containing medium. After three washes with PBS-1% BSA, the presence of specific antibody binding was detected by ELISA. Serotype specific wells were cloned. Pristine-primed BALB/c mice were IP injected with 1×10^7 hybridoma cells. Ascites fluid was collected 14 days later, centrifuged (5000 g, 20 min, Eppendorf) and stored at −80° C. before use.

[4] = 48-h old E. coli biofilms, mitomycin C 1 μg/ml

CO[C@@]12[C@H](COC(N)=O)C3=C(C(=O)C(C)=C(N)C3=O)N1C[C@@H]1N[C@@H]12 [Mytomicin C]
CFU numbers ([1]; 4 h): 8.8log10 +/− log10 CFU/ml | CFU numbers ([1]; 6 h): 8.2log10 +/− log10 CFU/ml | CFU numbers ([1]; 8 h): 7.6log10 +/− log10 CFU/ml | CFU numbers ([1]; 10 h): 7.4log10 +/− log10 CFU/ml | Congo Red absorbance of biofilm supernatant (release of bacterial amyloid) (E. coli biofilm; wavelength 400 nm): 0 | Congo Red absorbance of biofilm supernatant (release of bacterial amyloid) (E. coli biofilm; wavelength 450 nm): 0.156 | Congo Red absorbance of biofilm supernatant (release of bacterial amyloid) (E. coli biofilm; wavelength 500 nm): 0.338 | Congo Red absorbance of biofilm supernatant (release of bacterial amyloid) (E. coli biofilm; wavelength 541 nm): 0.421 | Congo Red absorbance of biofilm supernatant (release of bacterial amyloid) (E. coli biofilm; wavelength 550 nm): 0.345 | Congo Red absorbance of biofilm supernatant (release of bacterial amyloid) (E. coli biofilm; wavelength 600 nm): 0.015 | PFU numbers ([2]; 4 h): 2.3log10 +/− log10 PFU/ml | PFU numbers ([2]; 6 h): 9.3log10 +/− log10 PFU/ml | PFU numbers ([2]; 8 h): 10.4log10 +/− log10 PFU/ml | PFU numbers ([2]; 10 h): 11.2log10 +/− log10 PFU/ml

Transthyretin: mouse Transthyretin expressed in E. coli VT-243
Median T1D incidence 50% (weeks) [3]: 24 weeks

GGVLVQPG [Larazotide, Glycylglycyl-L-valyl-L-leucyl-L-valyl-L-glutaminyl-L-prolyl-glycine, reference compound]
Median T1D incidence 50% (weeks) [3]: 24 weeks

C[C@H]1c2cccc(O)c2C(=O)C2=C(O)[C@]3(O)C(=O)C(C(N)=O)=C(O)[C@@H](N(C)C)[C@@H]3[C@@H](O)[C@@H]21 [Doxycycline, reference compound]
Median T1D incidence 50% (weeks) [3]: 25 weeks

CO[C@@]12[C@H](COC(N)=O)C3=C(C(=O)C(C)=C(N)C3=O)N1C[C@@H]1N[C@@H]12 [mytomicin C]
CFU ([1]; 4 h): 8.8 log10 CFU/ml | CFU ([1]; 6 h): 8.2 log10 CFU/ml | CFU ([1]; 8 h): 7.6 log10 CFU/ml | CFU ([1]; 10 h): 7.4 log10 CFU/ml | PFU ([2]; 4 h): 2.3 log10 PFU/ml | PFU ([2]; 6 h): 9.3 log10 PFU/ml | PFU ([2]; 8 h): 10.4 log10 PFU/ml | PFU ([2]; 10 h): 11.2 log10 PFU/ml

O=C(O)C1CSC2=C(C3CC3)C(Cc3cccc4ccccc34)CC(=O)N21 (stereo not drawn) [8-cyclopropyl-7-(1-naphthylmethyl)-5-oxo-2,3,6,7-tetrahydro-5H-[1,3]thiazolo[3,2-a]pyridine-3-carboxylic acid]
Median T1D incidence 50% (weeks) [3]: 21 weeks

CCCCCCCO[C@H]1O[C@H](CO)[C@@H](O)[C@H](O)[C@@H]1O [n-Heptyl α-D-mannose, reference compound]
Median T1D incidence 50% (weeks) [3]: 22 weeks

CO[C@@]12[C@H](COC(N)=O)C3=C(C(=O)C(C)=C(N)C3=O)N1C[C@@H]1N[C@@H]12 [mitomycin C, reference compound]
Colony-forming units (CFU) after prophage induction (in words) [1, 4]: reduction | Amyloid release from preformed E. coli biofilms after prophage activation (in words) (E. coli biofilm; in vitro, mitomycin C 1 μg/ml, 48 h biofilms): pronounced amyloid release | Plaque forming units (PFU) after prophage induction (in words) [2, 4]: increase
